# The supplement of paper PMC10331698
# ± gives the standard deviation of the averaged measurements.
# Key:
# Assay in all cases: level (log10 ratio to DMSO vehicle control); higher = higher biomarker level / cell amount than vehicle control
# Details in all cases: in DMSO
# [1] = compound: FC(F)C(F)(F)COCC1CO1 [((2,2,3,3-Tetrafluoropropoxy)methyl)oxirane]
# Procedure: (§1)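 BioMAP Diversity Plus panel of 12 human primary cell co-culture systems (3C, 4H, LPS, SAg, BT, BF4T, BE3C, CASM3C, HDF3CGF, KF3CT, MyoF, Mphg). Compounds were added 1 h before stimulation and left for 24 h (MyoF 48 h; BT 72 h for soluble read-outs or 6 d for IgG). Biomarkers were read by ELISA, cytotoxicity by SRB, PBMC viability and proliferation by Alamar Blue. Each well value was divided by the mean of 8 DMSO control wells on the same plate and log10 transformed; duplicate blinded samples were tested at 4 concentrations.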
# Heptafluorobutyramide = compound: NC(=O)C(F)(F)C(F)(F)C(F)(F)F [Heptafluorobutyramide]
# Procedure: as §1
# [2] = compound: NCC(F)(F)C(F)(F)C(F)(F)C(F)(F)C(F)(F)C(F)(F)C(F)(F)F [1H,1H-Perfluorooctylamine]
# Procedure: as §1
# Perfluorodecanoic acid = compound: O=C(O)C(F)(F)C(F)(F)C(F)(F)C(F)(F)C(F)(F)C(F)(F)C(F)(F)C(F)(F)C(F)(F)F [Perfluorodecanoic acid]
# Procedure: as §1
# [3] = compound: O=C(O)C(F)(F)C(F)(F)C(F)(F)C(F)(F)C(F)(F)C(F)(F)C(F)(F)C(F)F [9-H-Perfluorononanoic acid]
# Procedure: as §1
# [4] = compound: O=C(O)C(F)(F)OC(F)(F)C(F)(F)OC(F)(F)F [Perfluoro-3,6-dioxaheptanoic acid]
# Procedure: as §1
# [5] = compound: OCCC(F)(F)C(F)(F)C(F)(F)C(F)(F)C(F)(F)C(F)(F)F [6:2 Fluorotelomer alcohol]
# Procedure: as §1
Test System,level (log10) ([1]; 6700 nM),level (log10) ([1]; 20000 nM),level (log10) ([1]; 60000 nM),level (log10) (Heptafluorobutyramide; 6700 nM),level (log10) (Heptafluorobutyramide; 20000 nM),level (log10) (Heptafluorobutyramide; 60000 nM),level (log10) ([2]; 6700 nM),level (log10) ([2]; 20000 nM),level (log10) ([2]; 60000 nM),level (log10) (Perfluorodecanoic acid; 6700 nM),level (log10) (Perfluorodecanoic acid; 20000 nM),level (log10) ([3]; 6700 nM),level (log10) ([3]; 20000 nM),level (log10) ([3]; 60000 nM),level (log10) ([4]; 6700 nM),level (log10) ([4]; 20000 nM),level (log10) ([4]; 60000 nM),level (log10) ([5]; 6700 nM),level (log10) ([5]; 20000 nM)
BE3C:HLA-DR,0.001 ± 0.0099,-0.0055 ± 0.0035,-0.07 ± 0.14,-0.0065 ± 0.005,0.0245 ± 0.012,-0.009 ± 0.0099,-0.001,-0.0145 ± 0.011,-0.0065 ± 0.0092,-0.0525 ± 0.022,-0.842 ± 0.04,-0.102 ± 0.042,-0.14 ± 0.052,-0.15 ± 0.0014,-0.0205 ± 0.054,-0.01 ± 0.035,-0.0225 ± 0.056,0.003,0.005 ± 0.02
3C:SRB,-0.0085 ± 0.0078,-0.008 ± 0.0028,-0.004 ± 0.0099,-0.0235 ± 0.04,-0.0095 ± 0.0078,-0.007 ± 0.024,0.0005 ± 0.0035,0.002 ± 0.0071,0.0045 ± 0.046,0.0095 ± 0.0021,-0.005 ± 0.0042,-0.005 ± 0.028,-0.0115 ± 0.016,-0.052 ± 0.025,-0.01 ± 0.0071,-0.022 ± 0.0057,-0.008 ± 0.0042,-0.006 ± 0.023,0.004 ± 0.028
BF4T:uPA,-0.003 ± 0.0028,-0.0005 ± 0.013,0.0135 ± 0.036,-0.0045 ± 0.03,-0.006 ± 0.013,-0.006 ± 0.014,-0.0085 ± 0.012,-0.016 ± 0.016,-0.0155 ± 0.00071,0.015 ± 0.011,-0.235 ± 0.043,-0.0085 ± 0.016,-0.0195 ± 0.012,0.001 ± 0.013,-0.04 ± 0.027,-0.011 ± 0.011,0.0005 ± 0.025,-0.0185 ± 0.012,-0.006 ± 0.011
3C:HLA-DR,0.012 ± 0.0085,0.013 ± 0.021,0.0235 ± 0.043,0.005 ± 0.0099,0.008 ± 0.0057,-0.007 ± 0.0028,0.004 ± 0.047,0.023 ± 0.057,0.023 ± 0.041,-0.0035 ± 0.0021,-0.006 ± 0.013,-0.005 ± 0.0028,0.0005 ± 0.0021,0.028 ± 0.02,-0.035 ± 0.033,-0.0075 ± 0.0078,-0.0115 ± 0.021,0.0095 ± 0.012,-0.01 ± 0.021
LPS:SRB,-0.0145 ± 0.0035,-0.005,-0.0105 ± 0.0092,-0.0115 ± 0.015,-0.009 ± 0.0071,-0.002 ± 0.0071,-0.0005 ± 0.0035,-0.0025 ± 0.0092,0.006 ± 0.037,0.01 ± 0.0071,0.003 ± 0.0042,-0.005 ± 0.016,-0.01 ± 0.014,-0.022 ± 0.0099,-0.011 ± 0.0028,-0.0105 ± 0.00071,-0.0095 ± 0.00071,0.0095 ± 0.0078,0.004 ± 0.0071
BF4T:PAI-I,-0.0075 ± 0.00071,-0.011 ± 0.0028,0.0105 ± 0.026,-0.0025 ± 0.0021,-0.014 ± 0.016,0.005 ± 0.027,-0.004 ± 0.02,-0.008 ± 0.016,0.0115 ± 0.005,0.0185 ± 0.00071,-0.119 ± 0.043,-0.099 ± 0.0028,-0.0915 ± 0.0021,-0.114 ± 0.0099,-0.0215 ± 0.019,-0.018 ± 0.033,-0.002 ± 0.011,0.013 ± 0.013,0.011 ± 0.0099
LPS:IL-1alpha,-0.046 ± 0.0042,-0.026 ± 0.021,0.022 ± 0.024,-0.014 ± 0.018,-0.0125 ± 0.0035,0.013 ± 0.054,-0.04 ± 0.038,0.0105 ± 0.022,-0.0025 ± 0.03,0.0275 ± 0.016,-0.0125 ± 0.0092,0.0095 ± 0.042,-0.0105 ± 0.00071,-0.014 ± 0.0099,-0.0605 ± 0.0035,-0.0075 ± 0.0064,-0.0055 ± 0.036,0 ± 0.045,-0.011 ± 0.016
4H:CD87/uPAR,-0.013,-0.0205 ± 0.03,-0.012 ± 0.0042,0.048 ± 0.014,0.031 ± 0.0014,0.0315 ± 0.0092,-0.0235 ± 0.023,-0.0215 ± 0.033,0.003 ± 0.014,0.0115 ± 0.021,0.0135 ± 0.0092,0.002 ± 0.037,0.027 ± 0.017,0.019 ± 0.013,-0.0205 ± 0.023,-0.019 ± 0.011,-0.019 ± 0.018,-0.002 ± 0.033,0.001 ± 0.033
BF4T:CCL26/Eotaxin-3,0.005 ± 0.033,0.0055 ± 0.052,0.031 ± 0.05,0.0165 ± 0.022,-0.0035 ± 0.0021,0.0045 ± 0.012,0.0175 ± 0.049,-0.0085 ± 0.016,0.037 ± 0.037,-0.083 ± 0.038,-0.509 ± 0.029,-0.174 ± 0.028,-0.198 ± 0.049,-0.147 ± 0.0071,-0.039 ± 0.048,-0.0195 ± 0.021,-0.0615 ± 0.1,-0.0055 ± 0.15,-0.023 ± 0.081
BE3C:CXCL11/I-TAC,0.0005 ± 0.054,-0.008 ± 0.033,0.0225 ± 0.037,-0.0035 ± 0.0064,0.005 ± 0.0042,-0.0015 ± 0.00071,0.0105 ± 0.005,-0.012 ± 0.011,-0.0105 ± 0.005,-0.0405 ± 0.021,-0.849 ± 0.028,-0.01 ± 0.0085,-0.009 ± 0.0085,-0.036 ± 0.021,0.011 ± 0.023,0.008 ± 0.0014,0.012 ± 0.02,-0.017 ± 0.0028,-0.022 ± 0.0057
4H:CCL2/MCP-1,0.021 ± 0.023,-0.0005 ± 0.042,0.0235 ± 0.066,-0.026 ± 0.013,-0.0325 ± 0.022,0.004 ± 0.095,0.0075 ± 0.028,-0.0195 ± 0.018,0.01 ± 0.044,-0.014 ± 0.0057,-0.0255 ± 0.03,-0.028 ± 0.013,-0.059 ± 0.017,-0.0405 ± 0.081,-0.0265 ± 0.037,-0.0345 ± 0.018,0.031 ± 0.0085,0.009 ± 0.0085,-0.0065 ± 0.018
BE3C:CXCL10/IP-10,-0.007 ± 0.011,-0.0125 ± 0.016,0.002 ± 0.0099,-0.0025 ± 0.00071,-0.0175 ± 0.012,0.0075 ± 0.018,0.004 ± 0.0014,-0.0025 ± 0.0035,0.002 ± 0.0085,-0.188 ± 0.088,-1.16,-0.021 ± 0.0057,-0.04 ± 0.0042,-0.149 ± 0.04,-0.03 ± 0.016,-0.0115 ± 0.018,-0.0095 ± 0.0078,-0.0035 ± 0.005,0.006 ± 0.0028
4H:CCL26/Eotaxin-3,0.0035 ± 0.0078,0 ± 0.041,0.014 ± 0.05,0.0315 ± 0.021,0.0345 ± 0.0035,0.0185 ± 0.019,0.0225 ± 0.022,0.008 ± 0.0014,0.028 ± 0.023,-0.0085 ± 0.011,-0.0305 ± 0.011,-0.002 ± 0.0085,-0.0035 ± 0.013,-0.0155 ± 0.0064,-0.0115 ± 0.016,0.0075 ± 0.0064,-0.024 ± 0.03,0.0545 ± 0.013,0.016 ± 0.04
BE3C:CD54/ICAM-1,0.011 ± 0.011,-0.0035 ± 0.0092,0.011 ± 0.027,-0.0195 ± 0.019,0.002 ± 0.0014,0.0035 ± 0.015,0.009 ± 0.0099,-0.0045 ± 0.012,0.017 ± 0.034,0.085,-1.02 ± 0.012,-0.0435 ± 0.012,-0.043 ± 0.0042,-0.071 ± 0.0057,-0.032 ± 0.0042,-0.0125 ± 0.0021,-0.0325 ± 0.015,0.0035 ± 0.018,0.001 ± 0.016
SAg:CD69,-0.0225 ± 0.0078,-0.018 ± 0.014,0 ± 0.03,0.031 ± 0.034,0.02 ± 0.016,0.0165 ± 0.05,-0.0095 ± 0.0092,0.0005 ± 0.0035,0.006 ± 0.016,-0.0335 ± 0.015,-0.062 ± 0.0057,-0.0335 ± 0.025,-0.034 ± 0.0085,-0.0245 ± 0.00071,-0.024 ± 0.0085,-0.013 ± 0.014,-0.029 ± 0.0028,0.012 ± 0.025,-0.012 ± 0.016
